Measured values reported in article PMC12299926 (Pharmaceuticals, 2025).

How the values were obtained:
[1] = 16 volunteers; subtherapeutic doses with propolis (375 mg/day); ref [21]; cited from earlier work
[2] = Plasma pharmacokinetics after per os enrofloxacin alone or with per os propolis (HPLC-FL, non-compartmental analysis); settings: rabbit plasma, CPR = metabolite of ENR
Method: (§1) This study was carried out under ideal conditions for rabbits, with ad libitum food and water. A total of 12 New Zealand White female rabbits, aged 4–6 months and weighing 2500–3000 g, were used in this study. The rabbits were randomly allocated into two groups, and each group consisted of six animals in the first phase of the study. This study was performed according to a two-phase longitudinal pharmacokinetic design. A 40-day elimination period was allowed between the treatments.
(§2) The collected blood samples were centrifuged at 13,000 rpm for 10 min, and plasma was removed and stored at −20 °C until HPLC analysis.
The mobile phase consisted of acetonitrile, and methanol (50:50) and potassium phosphate monobasic (20 mM, pH: 3.40) were delivered in an isocratic fashion at a flow rate of 1 mL/min. The fluorescence detector (FL, G1321B, Agilent, Germany) was at an excitation wavelength of 280 nm and an emission wavelength of 450 nm. […]
(§3) The plasma concentration–time curves obtained after each treatment in the individual animals were fitted with the WinNonlin software program (Version 5.2, Pharsight Corporation, Mountain View, CA, USA). The pharmacokinetic parameters for each animal were analyzed using non-compartmental model analysis. […]
The mean residence time (MRT) was calculated as follows: MRT0→∞ = AUMC0→∞/AUC0→∞ […]

[3] = Observation of systemic or local adverse effects during the study; settings: rabbits; enrofloxacin per os 20 mg/kg or IM 10 mg/kg, propolis 100 mg resin/kg per os
Method: The significance of the results was analyzed pharmacokinetically.
as §1

[4] = Plasma pharmacokinetics after intramuscular enrofloxacin alone or with per os propolis (HPLC-FL, non-compartmental analysis); settings: after ENR 10 mg/kg IM alone
Method: as §1, §2
The mobile phase consisted of acetonitrile, and methanol (50:50) and potassium phosphate monobasic (20 mM, pH: 3.40) were delivered in an isocratic fashion at a flow rate of 1 mL/min. The fluorescence detector (FL, G1321B, Agilent, Germany) was at an excitation wavelength of 280 nm and an emission wavelength of 450 nm. The Photo Diode Array Detector (DAD) was set at a wavelength of 279 nm for marbofloxacin (I.S.) analysis. The injection volume was 50 µL throughout the analysis, and a chromatographic analysis was completed in 10 min for plasma samples following injection. […]
as §3
The mean residence time (MRT) was calculated as follows: MRT0→∞ = AUMC0→∞/AUC0→∞
Terminal half-life (T1/2λz) was calculated as follows: T1/2λz= −ln(2)/λz where λz represents the first-order rate constant associated with the terminal (log-linear) portion of the curve.
The pharmacokinetic parameters are reported as mean (±SD). Harmonic means were calculated for T1/2λz and MRT0–∞. […] Non-normally distributed data were analyzed by a non-parametric Mann–Whitney U-Test; meanwhile, normally distributed data were compared by independent t-test using SPSS Statistics 23.0 (IBM Corp, Armonk, NY, USA). […]

[5] = propolis coadministered with duloxetine; ref [19]; cited from earlier work

Which “change of AUC with propolis” value [1] does the source give for `COc1ccc2[nH]c([S+]([O-])Cc3ncc(C)c(OC)c3C)nc2c1` (stereo not drawn) [omeprazole] here?
Its value is “increased”.

For `Cc1ncc2n1-c1ccc(Cl)cc1C(c1ccccc1F)=NC2` [midazolam], which “change of AUC with propolis” value [1] is on record?
The value was “increased”.

With `O=C(O)c1cn(C2CC2)c2cc(N3CCNCC3)c(F)cc2c1=O` [CPR, ciprofloxacin] as the compound, how does the “AUMC0-∞ (dose-normalized)” value ([2]; after ENR 20 mg/kg per os alone) read?
The value was 27.72±13.72 µg.h2/ml.

For `O=C(O)c1cn(C2CC2)c2cc(N3CCNCC3)c(F)cc2c1=O` [CPR + PP], which “AUMC0-∞ (dose-normalized)” value ([2]; after ENR 20 mg/kg per os with propolis 100 mg resin/kg) is on record?
The value was 63.99±17.18 µg.h2/ml.

Which results are given for `CCN1CCN(c2cc3c(cc2F)c(=O)c(C(=O)O)cn3C2CC2)CC1` [ENR, enrofloxacin]?
systemic or local adverse effects [3]: neither systemic nor local adverse effects were observed; AUMC0-∞ (dose-normalized) ([4]; dose-normalized, rabbit plasma, CPR = metabolite of ENR): 59.21±18.78 µg.h2/ml; Cmax ([4]; female, New Zealand White, rabbit, plasma, im, 10 mg/kg, Cmax, n = 6, CPR = metabolite of ENR): 2980 ± 350 ng/mL; Tmax ([4]; female, New Zealand White, rabbit, plasma, im, 10 mg/kg, Tmax, n = 6, CPR = metabolite of ENR): 28.2 ± 4.8 min

Which “change of AUC with propolis” value [1] does the source give for `Cn1c(=O)c2c(ncn2C)n(C)c1=O` [caffeine] here?
Its value is “decreased”.

What does the source list for `CNCC[C@H](Oc1cccc2ccccc12)c1cccs1` [duloxetine]?
increase in AUC with propolis coadministration [5]: 20–30%; increase in Cmax with propolis coadministration [5]: 20–30%

For `CCCCc1nc(Cl)c(CO)n1Cc1ccc(-c2ccccc2-c2nn[nH]n2)cc1` [losartan], which “change of AUC with propolis” value [1] is on record?
Its value is “decreased”.
